Assay results reported in patent US5164381A, “Pharmacologically active 1,5-diaryl-3-substituted pyrazoles and method for synthesizing the same” (Ortho Pharmaceutical Corporation, priority 1991, dated 1992).

Test system: Lewis strain laboratory rats
Assay: In vivo alleviation of inflammation: polyarthritis (adjuvant, Mycobacterium butyricum) in rats, inhibition of paw volume increase
Conditions: rat; for inhibition in vivo at 15 mg/kg: 15 mpk p.o.; for inhibition in vivo at 50 mg/kg: 50 mpk p.o.; for inhibition in vivo at 25 mg/kg: 25 mpk p.o.; for inhibition in vivo at 10 mg/kg: 10 mpk p.o.; for ED50: Rattus norvegicus, read-out: ED50 (effective dose to obtain a 50% inhibition of inflammation); for inhibition in vivo at 40 mg/kg: 40 mpk p.o.; for ED50 (effective dose to obtain a 50% inhibition of inflammation): p.o.
Procedure: Polyarthritis was induced in Lewis strain laboratory rats (weight=about 200 grams) by injection of a suspension of Mycobacterium butyricum in mineral oil into the subplantar tissue of the mammal's hind paws. On day 10 after the injection, the rats were assigned to groups, and paw volumes and body weights were recorded. Paw volumes of the contralateral, uninjected hind paw were determined by mercury plethylsmography. Per oral (p.o.) dosing began and continued for five consecutive days thereafter. On day 14 after the initial injection, approximately four hours after the final dose was administered, paw volumes and body weights were recorded and quantitated.
Anti-inflammatory activity of the substituted pyrazole compounds is expressed as the percent inhibition of paw volume increase.

[1] = po, 336 h, read-out: % INH. p.o. (percentage inhibition of pad swelling)

Compound: COc1ccc(-n2nc(CCC(=O)Nc3nnn[nH]3)cc2-c2ccc(Cl)cc2)cc1 [Compound 90]
- inhibition in vivo at 15 mg/kg [1]: 32%

Compound: OCCCc1cc(-c2ccc(Cl)cc2)n(-c2ccccc2)n1 [Compound 1]
- inhibition in vivo at 50 mg/kg [1]: 62%

Compound: CCN(CC)C(=O)CCc1cc(-c2ccc(Cl)cc2)n(-c2ccc(OC)cc2)n1 [Compound 28, 3-[5-(4-Chlorophenyl)-1-(4-methoxyphenyl)-3-pyrazolyl]-N,N-diethylpropanamide]
- inhibition in vivo at 25 mg/kg [1]: 44%

Compound: Nc1ccc(-n2nc(CCCO)cc2-c2ccc(Cl)cc2)cc1 [Compound 69]
- inhibition in vivo at 15 mg/kg [1]: 17%

Compound: COc1ccc(-n2nc(CCCNC(=O)C(=O)NO)cc2-c2ccc(Cl)cc2)cc1 [Compound 164]
- inhibition in vivo at 15 mg/kg [1]: 13%

Compound: COc1ccc(-n2nc(CCC(=O)O)cc2-c2ccc(C)cc2)cc1 [Compound 105]
- inhibition in vivo at 10 mg/kg [1]: 87%

Compound: COc1ccccc1-n1nc(CCC(=O)N(C)O)cc1-c1ccc(Cl)cc1 [Compound 104]
- inhibition in vivo at 15 mg/kg [1]: 39%

Compound: OCCCc1cc(-c2ccccc2)n(-c2ccc(Cl)cc2)n1 [Compound 21]
- inhibition in vivo at 50 mg/kg [1]: 52%

Compound: COc1ccc(-n2nc(CCC=O)cc2-c2ccc(Cl)cc2)cc1 [Compound 11, 3-[5-(4-Chlorophenyl)-1-(4-methoxyphenyl)-3-pyrazolyl] propanal]
- ED50 (po): 2.6 mg/kg

Compound: CCOC(=O)CNC(=O)CCc1cc(-c2ccc(Cl)cc2)n(-c2ccc(OC)cc2)n1 [Compound 87]
- inhibition in vivo at 15 mg/kg [1]: 22%

Compound: COc1ccccc1-n1nc(CCCO)cc1-c1ccc(Cl)cc1 [Compound 22]
- inhibition in vivo at 50 mg/kg [1]: 33%

Compound: COc1ccc(-n2nc(CCC(=O)O)cc2-c2ccc(C)c(C)c2)cc1 [Compound 107]
- inhibition in vivo at 10 mg/kg [1]: 30%

Compound: COc1ccc(-n2nc(CCC(C)=NNc3nccs3)cc2-c2ccc(Cl)cc2)cc1 [Compound 173, 5-(4-Chlorophenyl)-1-(4-methoxyphenyl)-3-(3-oxobutyl)pyrazole thiazol-2-yl hydrazone]
- inhibition in vivo at 15 mg/kg [1]: 39%

Compound: COc1ccc(-n2nc(CCC(=O)N(C)OC(=O)CCl)cc2-c2ccc(Cl)cc2)cc1 [Compound 139, 3-[5-(4-Chlorophenyl)-1-(4-methoxyphenyl)-3-pyrazolyl]N-chloroacetyloxy-N-methylpropanamide]
- ED50 (po): 6 mg/kg

Compound: OCCCc1cc(-c2ccc(Cl)cc2)n(-c2ccc(F)cc2)n1 [Compound 62]
- inhibition in vivo at 50 mg/kg [1]: 31%

Compound: COc1ccc(-n2nc(CCCO)cc2-c2ccc(C(F)(F)F)cc2)cc1 [Compound 56, 5-(4-trifluoromethylphenyl)-3-(3-hydroxypropyl)-1-(4-methoxyphenyl) pyrazole]
- ED50 (po): 3 mg/kg

Compound: COc1ccc(-n2nc(CCC(=O)NCCO)cc2-c2ccc(Cl)cc2)cc1 [Compound 65]
- inhibition in vivo at 15 mg/kg [1]: 21%

Compound: COc1ccc(-n2nc(CCC(N)=O)cc2-c2ccc(Cl)cc2)cc1 [Compound 31]
- inhibition in vivo at 25 mg/kg [1]: 75%

Compound: COc1ccc(-n2nc(CCCN(O)C(=O)c3ccccc3)cc2-c2ccc(Cl)cc2)cc1 [Compound 155]
- inhibition in vivo at 10 mg/kg [1]: 45%

Compound: CCOC(=O)C(C)N(O)C(=O)CCc1cc(-c2ccc(Cl)cc2)n(-c2ccc(OC)cc2)n1 (stereo not drawn) [Compound 144]
- inhibition in vivo at 10 mg/kg [1]: 55%

Compound: COc1ccc(-n2nc(CCCN(O)C(C)=O)cc2-c2ccc(Cl)cc2)cc1 [Compound 152, N-[3-[5-(4-Chlorophenyl)-1-(4-methoxyphenyl)-3-pyrazolyl]propyl]-N-hydroxy-acetamide]
- inhibition in vivo at 10 mg/kg [1]: 40%

Compound: OCCCc1cc(-c2ccc(Cl)cc2)n(-c2ccccc2C(F)(F)F)n1 [Compound 60]
- inhibition in vivo at 25 mg/kg [1]: 8%

Compound: COc1ccc(-n2nc(CCC(=O)N(C)O)cc2-c2cccc(C)c2)cc1 [Compound 115]
- inhibition in vivo at 10 mg/kg [1]: 35%

Compound: CN(O)C(=O)CCc1cc(-c2ccc(Cl)cc2)n(-c2ccccc2)n1 [Compound 67, 3-[5-(4-Chlorophenyl)-1-phenyl-3-pyrazolyl]-N-hydroxy-N-methyl propanamide]
- inhibition in vivo at 40 mg/kg [1]: 30%

Compound: COC(=O)CCc1cc(-c2ccc(Cl)cc2)n(-c2ccc(OC)cc2)n1 [Compound 19, Methyl 3-[5-(4-chlorophenyl)-1-(4-methoxyphenyl)-3-pyrazolyl] propionate]
- inhibition in vivo at 40 mg/kg [1]: 69%

Compound: CCOc1ccc(-n2nc(CCC(=O)O)cc2-c2ccc(Cl)cc2)cc1 [Compound 72]
- inhibition in vivo at 15 mg/kg [1]: 71%

Compound: COc1ccc(-n2nc(CCC(=O)N(C)OC)cc2-c2ccc(Cl)cc2)cc1 [Compound 44]
- inhibition in vivo at 25 mg/kg [1]: 69%

Compound: COc1ccc(-n2nc(CCC(=NNc3nccs3)c3ccccc3)cc2-c2ccc(Cl)cc2)cc1 [Compound 176]
- inhibition in vivo at 15 mg/kg [1]: 6%

Compound: COc1ccc(-n2nc(CCC(=O)N(C)OC(C)=O)cc2-c2ccc(Cl)cc2)cc1 [Compound 140]
- inhibition in vivo at 15 mg/kg [1]: 77%

Compound: COc1ccc(-n2nc(CC/C=C\CCCC(=O)O)cc2-c2ccc(Cl)cc2)cc1 [Compound 32, Sodium 8-[5-(4-Chlorophenyl)-1-(4-methoxyphenyl)-3-pyrazolyl]-5(Z)-octenoate]
- inhibition in vivo at 25 mg/kg [1]: 69%

Compound: COc1ccc(-n2nc(CCC(=O)N(C)O)c(Cl)c2-c2ccc(Cl)cc2)cc1 [Compound 149]
- inhibition in vivo at 15 mg/kg [1]: 68%

Compound: CCOc1ccc(-n2nc(CCC(=O)N(C)O)cc2-c2ccc(Cl)cc2)cc1 [Compound 76]
- inhibition in vivo at 15 mg/kg [1]: 43%

Compound: COc1ccc(-n2nc(CCC(=O)NCC(=O)NO)cc2-c2ccc(Cl)cc2)cc1 [Compound 88]
- inhibition in vivo at 15 mg/kg [1]: 36%

Compound: COc1ccc(-n2nc(CCC=NO)cc2-c2ccc(Cl)cc2)cc1 [Compound 26, 5-(4-Chlorophenyl)-3-(3-oximinopropyl)-1-(4-methoxyphenyl) pyrazole]
- inhibition in vivo at 25 mg/kg [1]: 79%

Compound: COCC(=O)ON(C)C(=O)CCc1cc(-c2ccc(Cl)cc2)n(-c2ccc(OC)cc2)n1 [Compound 142]
- inhibition in vivo at 10 mg/kg [1]: 67%

Compound: COc1ccc(-n2nc(CCC(=O)N(C)OC(=O)CCCC(=O)O)cc2-c2ccc(Cl)cc2)cc1 [Compound 132]
- inhibition in vivo at 10 mg/kg [1]: 30%

Compound: CCN(CC)C(=O)CCC(=O)ON(C)C(=O)CCc1cc(-c2ccc(Cl)cc2)n(-c2ccc(OC)cc2)n1 [Compound 137]
- inhibition in vivo at 10 mg/kg [1]: 54%

Compound: COc1ccc(-n2nc(CCC(=O)NC3=NCCS3)cc2-c2ccc(Cl)cc2)cc1 [Compound 85]
- inhibition in vivo at 40 mg/kg [1]: 40%

Compound: CCOC(=O)C(=O)NCCc1cc(-c2ccc(Cl)cc2)n(-c2ccc(OC)cc2)n1 [Compound 160, Ethyl 2-[5-(4-chlorophenyl)-1-(4-methoxyphenyl)-3-pyrazolyl]-ethylamine-N-oxoacetate]
- inhibition in vivo at 15 mg/kg [1]: 9%

Compound: COCCCc1cc(-c2ccc(Cl)cc2)n(-c2ccc(OC)cc2)n1 [Compound 24, 3-[5-(4-Chlorophenyl)-1-(4-methoxyphenyl)-3-pyrazolyl] propyl methyl ether]
- inhibition in vivo at 25 mg/kg [1]: 64%

Compound: COc1ccc(-n2nc(CCC(=O)O)cc2-c2ccc(Cl)cc2)cc1 [Compound 13, Sodium 3-[5-(4-chlorophenyl)-1-(4-methoxyphenyl)-3-pyrazoyl] propanoate monohydrate]
- ED50 (effective dose to obtain a 50% inhibition of inflammation) (monohydrate): 1.8 mpk

Compound: COc1ccc(-n2nc(CCCNO)cc2-c2ccc(Cl)cc2)cc1 [Compound 151, N-[3-[5-(4-Chlorophenyl)-1-(4-methoxyphenyl)-3-pyrazolyl]propyl]hydroxyl-amine]
- inhibition in vivo at 25 mg/kg [1]: 42%

Compound: OCCCc1cc(-c2ccc(Cl)cc2)n(-c2ccc(Cl)cc2)n1 [Compound 4]
- inhibition in vivo at 50 mg/kg [1]: 68%

Compound: COc1ccc(-n2nc(CCC(=O)N(C)O)cc2-c2ccc(F)cc2)cc1 [Compound 45, 3-[5-(4-Fluorophenyl)-1-(4-methoxyphenyl)-3-pyrazolyl]-N-hydroxy-N-methyl propanamide]
- inhibition in vivo at 25 mg/kg [1]: 51%

Compound: COc1ccc(-n2nc(CCCOC(=O)CC(C)=O)cc2-c2ccc(Cl)cc2)cc1 [Compound 59, 3-(3-Acetoacetoxypropyl)-5-(4-chlorophenyl)-1-(4-methoxyphenyl) pyrazole]
- inhibition in vivo at 20 mg/kg (po, 336 h, 20 mpk p.o., read-out: % INH. p.o. (percentage inhibition of pad swelling)): 48%

Compound: O=C(O)CCc1cc(-c2ccc(Cl)cc2)n(-c2ccccc2)n1 [Compound 17, 3-[5-(4-Chlorophenyl)-1-phenyl-3-pyrazolyl]propionic acid]
- inhibition in vivo at 25 mg/kg [1]: 50%

Compound: COc1ccc(-n2nc(CCCN(O)C(=O)C(C)(C)C)cc2-c2ccc(Cl)cc2)cc1 [Compound 153]
- inhibition in vivo at 10 mg/kg [1]: 49%

Compound: COc1ccc(-n2nc(CCC(=O)N(C)O)cc2-c2ccccc2)cc1 [Compound 114]
- inhibition in vivo at 15 mg/kg [1]: 5%

Compound: COc1ccc(-n2nc(CCC(=O)N(C)O)c(Br)c2-c2ccc(Cl)cc2)cc1 [Compound 148]
- inhibition in vivo at 40 mg/kg [1]: 15%

Compound: CCOC(=O)C(CSC)NC(=O)CCc1cc(-c2ccc(Cl)cc2)n(-c2ccc(OC)cc2)n1 (stereo not drawn) [Compound 101]
- inhibition in vivo at 15 mg/kg [1]: 57%

Compound: CCc1ccc(-c2cc(CCC(=O)O)nn2-c2ccc(OC)cc2)cc1 [Compound 110]
- inhibition in vivo at 10 mg/kg [1]: 51%

Compound: COc1ccc(-n2nc(CCC(=O)NO)cc2-c2ccc(Cl)cc2)cc1 [Compound 29, 3-[5-(4-Chlorophenyl)-1-(4-methoxyphenyl)-3-pyrazolyl]-N-hydroxypropanamide]
- inhibition in vivo at 25 mg/kg [1]: 91%

Compound: COc1ccc(-n2nc(CCC(=O)O)cc2-c2ccc(Cl)cc2)cc1 [Compound 12, 3-[5-(4-Chlorophenyl)-1-(4-methoxyphenyl)-3-pyrazolyl] propionic acid]
- ED50 (effective dose to obtain a 50% inhibition of inflammation): 5.2 mpk

Compound: CCOC(=O)C(CS)NC(=O)CCc1cc(-c2ccc(Cl)cc2)n(-c2ccc(OC)cc2)n1 (stereo not drawn) [Compound 100]
- inhibition in vivo at 15 mg/kg [1]: 58%
